Data from patent US20100203123A1, “METHODS FOR IMPROVING COGNITIVE FUNCTION AND DECREASING HEART RATE” (MARTEK BIOSCIENCES CORPORATION, priority 2009, published 2010).

Experiments:
[1] = system: healthy elderly subjects with a mild memory complaint; test: CANTAB Paired Associate Learning (PAL) test, randomized double-blind placebo-controlled 24 week study; format: in vivo, human
Method: The effects of DHA (about 900 mg/day) versus placebo was tested to determine whether cognitive measures of memory, attention, and executive function were improved, utilizing the Cambridge Neuropsychological Test Automated Battery (CANTAB) cognitive battery, in healthy elderly subjects with a mild memory complaint. One objective of the study was to determine the effect of DHA administration versus placebo on improving cognitive functions (i.e., working memory, memory retention, attention, processing speed, and executive function) in healthy elderly with a subjective memory complaint. Another objective of the study included determining the effects of DHA on visual acuity, levels of plasma phospholipids, and evaluating the safety and tolerability of the DHA dose administered.
The study was a randomized, double-blind, placebo-controlled, parallel, multi-center design study to evaluate the effects of an oral dose of DHA on cognitive functions in healthy elderly with a subjective memory complaint. The study consisted of a screening/baseline period, and a 24 week treatment period.
The DHA group was provided 800 mg soft-gelatin capsules, each containing about 300 mg DHA as a triglyceride from algal oil (DHASCO®-S oil, 40% DHA). In addition to 40% DHA, DHASCO®-S oil was formulated to contain 40-60% saturated, mono- and polyunsaturated fatty acids, 400 ppm ascorbyl palmitate, 2000 ppm mixed tocopherols, 2000 ppm rosemary extract, 3% orange-flavoring, and 1% natural masking agent. Subjects were instructed to take three 800 mg capsules/day, i.e., about 900 mg DHA/day.
Pre-baseline testing with the CANTAB occurred to serve as a training session and to familiarize the subject with the computer system. Morris R, et al., Computer Aided Assessment of Dementia: Comparative Studies of Neuropsychological Deficits in Alzheimer Type Dementia and Parkinson's Disease (1987). Seven (+/−2) days following this pre-baseline testing, baseline measurements were taken, including baseline laboratory measures, vital signs, and the CANTAB cognitive battery. At the baseline session, subjects were stratified based on age (55-69; ≧70) and randomly assigned to receive about 900 mg DHA, or placebo. Capsules, either DHA or placebo, as randomly assigned, was given to each subject at the end of the baseline visit. Subjects were instructed to take 3 capsules everyday for the ensuing 24 weeks and were supplied initially with 3 months' worth of capsules. At the end of 4 weeks, subjects returned to the site for compliance and safety assessments. Subjects returned to the site at 12 weeks for safety and efficacy assessments and were re-supplied with the final 3 months' worth of capsules. Subjects returned to the site at 24 weeks for the “end of study” efficacy and safety assessments. Compliance was assessed by food frequency questionnaires, returned capsule counts, and by plasma DHA levels (taken at 24 weeks). The CANTAB cognitive battery consists of tests of memory, learning, attention, problem-solving, and executive function (i.e., planning and organizational skills). See e.g., Fowler et al., Applied Neuropsychology 2:72-78 (1995); Robbins et al., Dementia 5:266-281 (1994); and De Luca et al., J Clinical and Experimental Neuropsychology 25:242-254 (2003).
A primary efficacy endpoint of the CANTAB test score on the Paired Associate Learning (PAL) test at 24 weeks of treatment was used as the primary efficacy outcome. The primary analysis was adjusted for baseline scores, education, site, and the stratification factor of age. Secondary analyses were based on the model above with the addition of the factor, concomitant statin medication use. The PAL subtest of the CANTAB is a test of visuospatial cued recall memory that detects changes in episodic memory. See e.g., de Jager et al., Psychological Medicine 32:483-491 (2002). […]

[2] = system: healthy elderly subjects with a mild memory complaint; test: Geriatric Depression Scale; format: in vivo, human; settings: 6 month study, not different between groups
From the text: During the Screening Period, subjects were selected on the basis of specific inclusion and exclusion criteria, including a screening Logical Memory sub-test of the Wechsler Memory Scale (WMS III). See e.g., Wechsler, D., Administration and Scoring Manual, 3rd ed. San Antonio, Tex.: Harcourt Brace & Company, 1997. In addition to the Logical Memory sub-test, the Mini-Mental State Examination (MMSE), Geriatric Depression scale, and a test of visual acuity and a DHA Food Frequency Questionnaire were administered to all subjects at screening. See e.g., Folstein et al., Pyschiatr. Res. 12:189-198 (1975); Yesavage J., et al., J Psychiatr. Res. […] (1982). Eligible subjects who meet the screening criteria were given a pre-baseline training session with the computerized cognitive battery, CANTAB.
Other secondary measures included self-assessment tests of memory (Frequency of Forgetting-10 scale) (Zelinski, E. M. et al., Aging and Mental Health […]), Alzheimer's Disease Cooperative Study-Activities of Daily Living Prevention Instrument (ADCS-ADL PI scale) (Galasko, D., Alzheimer Dis. Assoc. Disord. 20:S152-69 (200)), Mini-Mental State Examination (MMSE) (Folstein et al., Pyschiatr. Res. 12:189-198 (1975) and the Geriatric Depression Scale (Yesavage, J., et al., J Psychiatr. Res. […]).

SMILES: CC/C=C\C/C=C\C/C=C\C/C=C\C/C=C\C/C=C\CCC(=O)O [DHA, (all-Z)-4,7,10,13,16,19-docosahexaenoic acid]
- errors made on the PAL 6 pattern stage test, diff. score versus placebo, change from baseline ([1]; about 900 mg/d DHA, six months, ITT analysis, p<0.03): −1.63±0.76
- PAL primary endpoint, diff. score versus placebo, compliers analysis ([1]; about 900 mg/d, week 24, 95% CI −3.1, 0.4, p<0.13, not significant): −1.3±0.89
- improvement in PAL test performance compared to age-associated normative data ([1]; about 900 mg/day, 6 months, placebo 3.6 year): 7 year
- reduction in CANTAB PAL 6 pattern errors compared to the decrease with placebo ([1]; about 900 mg/day, six months): ~2 fold
- mean PAL errors after 6 months of DHA supplementation ([1]; baseline 13.4±11.5): 8.8±9.9
- normative age corresponding to mean PAL errors after 6 months ([1]; baseline 72.6 years): 65.6 years of age
- Geriatric Depression scale [2]: unchanged
